Test systems include SF-268; CAKI-1; CCRF-CEM; SK-MEL-2; NCI-H460; RXF 393; BT-549; SF-539; EKVX; OVCAR-5; HCC 2998; PC-3; DU-145; UACC-62; 786-0; SK-MEL-28; HL-60; RPMI-8226; LOX IMVI; HOP-92.
Test in all cases: DTP human tumour cell line panel, 48 h

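Following 48 hours of exposure in 96-well plates, responses at five concentrations were used to interpolate endpoints linearly. Here, GI50 denotes the concentration required for 50% inhibition of growth.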 The source made the active and inactive calls. No stated cut-off is given here; in the data, active = GI50 up to about 1.1 µM and inactive = higher.

These results are taken from ChEMBL document CHEMBL1201862, “PubChem BioAssay data set” (2004).

On to `O=[N+]([O-])c1ccc2nc(O)c(/C=C(\O)c3ccccc3)nc2c1`, for which the GI50 is 13.9 µM (inactive) with SF-268; 21.4 µM (inactive) in the assay with CAKI-1; > 100 µM (inactive) in the assay with CCRF-CEM; > 100 µM (inactive) in the assay with SK-MEL-2; 3.83 µM (inactive) in the assay with NCI-H460; 20.6 µM (inactive) with RXF 393. The GI50 was 76.7 µM (inactive) in the assay with BT-549; 15.3 µM (inactive) in the assay on SF-539; 49.4 µM (inactive) with EKVX; > 100 µM (inactive) with OVCAR-5; > 100 µM (inactive) with HCC 2998; 28.8 µM (inactive) with PC-3. The GI50 in the assay on DU-145 was > 100 µM (inactive); in the assay with UACC-62 it was 24.4 µM (inactive); in the assay with 786-0, 4.78 µM (inactive).

With `C=C(C)C(=O)N1c2ccc(OC)cc2CC1C(=O)OCC` (configuration not stated), the GI50 with SF-268, in the assay with CAKI-1, in the assay on CCRF-CEM, in the assay with SK-MEL-28, in the assay with SK-MEL-2 and in the assay on NCI-H460 was > 100 µM (inactive) each time. The GI50 with BT-549, in the assay with SF-539, in the assay on EKVX, in the assay on OVCAR-5, in the assay with HCC 2998 and in the assay with PC-3 was > 100 µM (inactive) each time. Moreover, the GI50 with DU-145 is > 100 µM (inactive); in the assay with UACC-62, > 100 µM (inactive); in the assay on 786-0, > 100 µM (inactive); in the assay on HL-60, > 10 µM (inactive).

In the case of `O[C@@H]1C[C@H](Cl)c2c(Cl)sc(Cl)c21`, the GI50 with RPMI-8226, with LOX IMVI, in the assay on SF-268, in the assay on CAKI-1, in the assay on CCRF-CEM and with SK-MEL-28 was > 100 µM (inactive) throughout. Moreover, the GI50 with SK-MEL-2, with NCI-H460, in the assay with RXF 393, in the assay on BT-549, in the assay with SF-539 and in the assay with EKVX was > 100 µM (inactive) in each case. In addition, the GI50 with OVCAR-5, in the assay on HCC 2998, in the assay with PC-3, in the assay on DU-145, with UACC-62 and in the assay on 786-0 was > 100 µM (inactive) throughout.

In the case of `Cc1cccc2c1C(=O)[C@@](C)([C@]1(C)Nc3cccc(C)c3C1=O)N2`, the GI50 is 11 µM (inactive) with RPMI-8226; > 100 µM (inactive) in the assay on LOX IMVI; > 100 µM (inactive) with SF-268; > 100 µM (inactive) in the assay with CAKI-1; 49.4 µM (inactive) in the assay on CCRF-CEM; > 100 µM (inactive) in the assay with SK-MEL-28. Besides, the GI50 with SK-MEL-2, in the assay on NCI-H460, with RXF 393, in the assay with BT-549, in the assay on SF-539 and in the assay with EKVX was > 100 µM (inactive) in each case. In addition, the GI50 with OVCAR-5 was > 100 µM (inactive); with HCC 2998, > 100 µM (inactive); in the assay with PC-3 it was 38.7 µM (inactive); in the assay on DU-145, > 100 µM (inactive); in the assay on UACC-62, > 100 µM (inactive); in the assay with 786-0, > 100 µM (inactive). In the assay on HL-60, the GI50 is 0.499 µM (active).

Consider `CCC/C(Cl)=N\OC(=O)Nc1cccc(C(F)(F)F)c1`, for which the GI50 with RPMI-8226 is 4.61 µM (inactive); in the assay with LOX IMVI, 6.84 µM (inactive); in the assay with SF-268, 27.3 µM (inactive); in the assay on CAKI-1 it was 18.1 µM (inactive); in the assay with CCRF-CEM, 2.43 µM (inactive); with SK-MEL-28, 19.2 µM (inactive). Further, the GI50 was 16.7 µM (inactive) in the assay on SK-MEL-2; 19.4 µM (inactive) with NCI-H460; 19.6 µM (inactive) in the assay with RXF 393; 10.6 µM (inactive) in the assay with BT-549; 18.7 µM (inactive) in the assay on SF-539; 16.6 µM (inactive) in the assay with EKVX. Also, the GI50 with OVCAR-5 was 20.3 µM (inactive); with HCC 2998, 18.2 µM (inactive); with PC-3, 17.6 µM (inactive); in the assay with DU-145, 13.2 µM (inactive); with UACC-62, 18.9 µM (inactive); with 786-0, 16 µM (inactive). Besides, in the assay with HL-60, the GI50 is 1.88 µM (inactive).

Consider `O=C1/C(=C/c2ccc(Br)s2)NC(=S)N1CN1CCOCC1`, for which the GI50 in the assay with RPMI-8226 is 16.7 µM (inactive); with LOX IMVI it was 24.5 µM (inactive); in the assay on SF-268 it was 87.7 µM (inactive); in the assay on CAKI-1, 25.2 µM (inactive); with SK-MEL-28 it was 40.4 µM (inactive); with SK-MEL-2, 71.9 µM (inactive). Further, the GI50 is 49.8 µM (inactive) in the assay on NCI-H460; 21.3 µM (inactive) with RXF 393; 34 µM (inactive) with BT-549; 8.38 µM (inactive) in the assay with EKVX; 61.1 µM (inactive) in the assay with OVCAR-5; > 100 µM (inactive) with HCC 2998. The GI50 was 78.9 µM (inactive) in the assay on PC-3; 53.2 µM (inactive) with DU-145; 20.2 µM (inactive) in the assay on UACC-62; 43 µM (inactive) in the assay with 786-0; 23.9 µM (inactive) in the assay on HL-60.

For the compound `Cn1c(=O)cc(NCc2ccc(Cl)cc2)[nH]c1=O`, the GI50 is > 100 µM (inactive) with RPMI-8226; > 100 µM (inactive) in the assay with LOX IMVI; 18.8 µM (inactive) in the assay with SF-268; > 100 µM (inactive) in the assay with CAKI-1; > 100 µM (inactive) in the assay with SK-MEL-28; > 100 µM (inactive) in the assay with SK-MEL-2. For the same compound, the GI50 in the assay on HOP-92 was 19.3 µM (inactive); in the assay on NCI-H460, > 100 µM (inactive); in the assay with RXF 393, 68.7 µM (inactive); with BT-549 it was 76.9 µM (inactive); in the assay on SF-539 it was 32.4 µM (inactive); with EKVX, > 100 µM (inactive). For the same compound, the GI50 in the assay with OVCAR-5 is > 100 µM (inactive); in the assay on HCC 2998 it was 99.5 µM (inactive); in the assay with PC-3 it was > 100 µM (inactive); in the assay with UACC-62, 30.8 µM (inactive); with 786-0 it was 54 µM (inactive).

As for `O/N=C1/CCCc2nonc21`, the GI50 in the assay on RPMI-8226, in the assay on LOX IMVI, in the assay with SF-268, in the assay on CAKI-1, with CCRF-CEM and in the assay with SK-MEL-28 was > 100 µM (inactive) throughout. Also, the GI50 with SK-MEL-2, with HOP-92, in the assay with NCI-H460, in the assay with RXF 393, in the assay with SF-539 and with EKVX was > 100 µM (inactive) each time. Also, the GI50 in the assay with OVCAR-5, with HCC 2998, in the assay with PC-3, in the assay on DU-145, with UACC-62 and with 786-0 was > 100 µM (inactive) each time. The GI50 in the assay with HL-60 was > 100 µM (inactive).

For `CNC(=O)c1nc[nH]c1/N=N/N(C)N`, the GI50 was > 100 µM (inactive) in the assay with RPMI-8226; 74.6 µM (inactive) with LOX IMVI; > 100 µM (inactive) with SF-268; > 100 µM (inactive) in the assay on CAKI-1; > 10 µM (inactive) in the assay on CCRF-CEM; > 100 µM (inactive) with SK-MEL-28. Besides, the GI50 with SK-MEL-2 is > 100 µM (inactive); in the assay with NCI-H460 it was 55 µM (inactive); in the assay with RXF 393, > 100 µM (inactive); in the assay with BT-549, > 100 µM (inactive); with SF-539 it was > 100 µM (inactive); with EKVX it was > 100 µM (inactive). The GI50 in the assay on OVCAR-5, with HCC 2998, in the assay on PC-3, in the assay with DU-145, with UACC-62 and in the assay with 786-0 was > 100 µM (inactive) in each case.

`CC(C)(C)/C(O)=C\c1nc2ccc(C(F)(F)F)cc2[nH]c1=O`: the GI50 in the assay with RPMI-8226, in the assay with LOX IMVI, with SF-268, in the assay on CAKI-1, with CCRF-CEM and in the assay with SK-MEL-28 was > 100 µM (inactive) each time. Moreover, the GI50 in the assay with SK-MEL-2, with HOP-92, in the assay on RXF 393, in the assay on BT-549, in the assay on EKVX and in the assay with OVCAR-5 was > 100 µM (inactive) in each case. The GI50 with PC-3, in the assay on DU-145, with UACC-62 and with 786-0 was > 100 µM (inactive) each time.

On to `CCCc1c(OC)c(=O)c2c(O)cc(OC)c3c4c(OC)cc(O)c5c(=O)c(OC)c(CCC)c(c1c23)c54`, for which the GI50 in the assay on RPMI-8226 is 2.5 µM (inactive); in the assay on LOX IMVI it was 1.63 µM (inactive); with SF-268, 5 µM (inactive); in the assay on CAKI-1, 4.17 µM (inactive); in the assay with CCRF-CEM, 1.26 µM (inactive); in the assay on SK-MEL-28, 5.68 µM (inactive). In addition, the GI50 was 6.64 µM (inactive) with SK-MEL-2; 5.69 µM (inactive) in the assay on HOP-92; 3.16 µM (inactive) in the assay with NCI-H460; 2.74 µM (inactive) in the assay with BT-549; 1.49 µM (inactive) in the assay on SF-539; 2.58 µM (inactive) in the assay on EKVX. The GI50 with OVCAR-5 is 10.4 µM (inactive); in the assay with HCC 2998 it was 14.7 µM (inactive); with PC-3, 2.44 µM (inactive); in the assay on DU-145, 3.76 µM (inactive); in the assay on UACC-62, 10.3 µM (inactive); with 786-0 it was 2.84 µM (inactive).
